Values after ≈ are worked out from the molar mass of the structure shown. Peptide text beside a SMILES is read from it.
Legend:
MDR P. aeruginosa PA 910 = experiment: microbe, parasite or virus in culture; format: cell-based, Pseudomonas aeruginosa; details: MDR PA 910, 18 h
Method: (§1) We selected six different P. aeruginosa isolates that were described as MDR and had been isolated from clinical and municipal waste water ([Schwartz et al., 2006]). The minimal inhibitory concentration (MIC) was determined in a microdilution assay using Mueller-Hinton (MH) broth following a previously published protocol ([Wiegand et al., 2008]). Briefly, a twofold serial dilution of the antibiotics and peptides were prepared and added to a bacteria solution, resulting in 2–5 10^5 CFU/ml. The microtiter plates (polypropylene, Corning) were incubated for 18 h at 37°C and MICs were taken visually.

MDR P. aeruginosa PA 919 = experiment: microbe, parasite or virus in culture; format: cell-based, Pseudomonas aeruginosa
Method: as §1

MDR P. aeruginosa PA253 = experiment: microbe, parasite or virus in culture; format: cell-based, Pseudomonas aeruginosa
Method: as §1

P. aeruginosa PA01-wt = experiment: microbe, parasite or virus in culture; format: cell-based, Pseudomonas aeruginosa
Method: as §1

[1] = test system: MDR isolate of P. aeruginosa (PA 910); details: checkerboard, MHb
Method: The checkerboard assay was used to determine the fractional inhibitory concentrations (FICs), following the protocol described in Koneman’s Color Atlas and Textbook of Diagnostic Microbiology ([Winn et al., 2006]). Briefly, combinations of peptides and antibiotics were prepared in 96-well plates (polypropylene, Corning) in a twofold dilution series. After the addition of a log-phase bacterial inoculum of 2–5 × 10^5 CFU/ml, plates were incubated at 37°C for 18 h. The FICs were determined by visual inspection and the effects of the combinations were determined using the FICs. The FIC was computed by adding two partial FIC values, FICA—the MIC of drug A, tested in combination with drug B divided by the MIC of drug A, tested alone and FICB—the MIC of drug B, tested in combination with drug A divided by the MIC of drug B, tested alone [FIC = FICA + FICB = (MICAB/MICA) + (MICBA/MICB), where MICA and MICB are the MICs of drugs A and B alone, respectively, and MICAB and MICBA are the MIC concentrations of the drugs in combination]. Here we use the European Committee for Antimicrobial Susceptibility Testing (EUCAST) definition, which is very similar to the definition provided by [Odds, 2003], except Odds define additive effects when FIC values are between 0.5 and 1 ([European Committee for Antimicrobial Susceptibility Testing [EUCAST] of the European Society of Clinical Microbiology and Infectious Diseases [ESCMID], 2000]; [Odds, 2003]). The combination of peptide (drug A) and antibiotics (drug B) was defined as synergistic if the FIC was ≤ 0.5, indifferent if the FIC was > 0.5 but ≤ 4.0 and antagonistic if the FIC was > 4.0.

[2] = short AMPs, microdilution, Mueller-Hinton broth, 18 h at 37°C, read visually, triplicate (n = 3)

| Structure (SMILES) | MIC against PA910 in μM (peptides, Table 4) (MDR P. aeruginosa PA 910) [µM] | MIC against MDR isolates of PA, PA919 (MDR P. aeruginosa PA 919; MDR PA 919, 18 h) [µM] | MIC against MDR isolates of PA, PA253 (MDR P. aeruginosa PA253; MDR PA253, 18 h) [µM] | MIC against PA01 wt (P. aeruginosa PA01-wt; -wt, 18 h) [µM] | also measured |
| --- | --- | --- | --- | --- | --- |
| CC[C@H](C)[C@H](NC(=O)[C@H](CCCNC(=N)N)NC(=O)[C@H](C)NC(=O)[C@H](CC(C)C)NC(=O)[C@@H](N)CCCNC(=N)N)C(=O)N[C@H](C(=O)N[C@H](C(=O)N[C@H](C(=O)N[C@@H](CCCNC(=N)N)C(=O)N[C@H](C(=O)N[C@@H](C)C(=O)N[C@@H](CCCNC(=N)N)C(N)=O)C(C)C)[C@@H](C)CC)C(C)C)C(C)C [Bac2a] (H-RLARIVVIRVAR-NH2) | 32 (≈ 45.5 µg/mL) | 16 | 32 | 16 (≈ 22.7 µg/mL) | – |
| N=C(N)NCCC[C@H](NC(=O)[C@H](CCCNC(=N)N)NC(=O)[C@@H](N)Cc1ccccc1)C(=O)N[C@@H](Cc1c[nH]c2ccccc12)C(=O)N[C@@H](Cc1c[nH]c2ccccc12)C(=O)N[C@@H](CCCCN)C(=O)N[C@@H](Cc1c[nH]c2ccccc12)C(=O)N[C@@H](Cc1ccccc1)C(=O)N[C@@H](CCCCN)C(N)=O [HHC-53] (H-FRRWWKWFK-NH2) | 32 (≈ 46 µg/mL) | 16 | 8 | 8 (≈ 11.5 µg/mL) | – |
| CC[C@H](C)[C@H](N)C(=O)N[C@@H](CC(C)C)C(=O)N1CCC[C@H]1C(=O)N[C@@H](Cc1c[nH]c2ccccc12)C(=O)N[C@@H](CCCCN)C(=O)N[C@@H](Cc1c[nH]c2ccccc12)C(=O)N1CCC[C@H]1C(=O)N[C@@H](Cc1c[nH]c2ccccc12)C(=O)N[C@@H](Cc1c[nH]c2ccccc12)C(=O)N1CCC[C@H]1C(=O)N[C@@H](Cc1c[nH]c2ccccc12)C(=O)N[C@@H](CCCNC(=N)N)C(=O)N[C@@H](CCCNC(=N)N)C(N)=O [Indolic., indolicidin] | – | – | – | – | MIC against MDR isolates of PA, PA919 (MDR P. aeruginosa PA 919; [2]): 32 µM; MIC against MDR isolates of PA, PA253 (MDR P. aeruginosa PA253; [2]): 64 to 128 µM; MIC against PA01 wt (P. aeruginosa PA01-wt; [2]): 8 µM (≈ 15.3 µg/mL); FIC mean (SD), combination with CET ([1]; confirmation study, peptide + ceftazidime, Indopt versions 1/8 MHb, mean of at least three measurements (n = 3), SD in brackets): 0.71 (0.21); FIC, combination with AMI ([1]; peptide + amikacin, for the Indopt versions 1/8 MHb, 2–5 × 10^5 CFU/ml, 37°C, 18 h, visual, determined once (n = 1)): 0.75; FIC, combination with CEF ([1]; peptide + cefepime, for the Indopt versions 1/8 MHb, 2–5 × 10^5 CFU/ml, 37°C, 18 h, visual, determined once (n = 1)): 2; FIC, combination with CET ([1]; peptide + ceftazidime, for the Indopt versions 1/8 MHb, 2–5 × 10^5 CFU/ml, 37°C, 18 h, visual, determined once (n = 1)): 0.51; FIC, combination with CIP ([1]; peptide + ciprofloxacin, for the Indopt versions 1/8 MHb, 2–5 × 10^5 CFU/ml, 37°C, 18 h, visual, determined once (n = 1)): 0.5; FIC, combination with ERY ([1]; peptide + erythromycin, for the Indopt versions 1/8 MHb, 2–5 × 10^5 CFU/ml, 37°C, 18 h, visual, determined once (n = 1)): 0.63; FIC, combination with GEN ([1]; peptide + gentamycin, for the Indopt versions 1/8 MHb, 2–5 × 10^5 CFU/ml, 37°C, 18 h, visual, determined once (n = 1)): 0.5; FIC, combination with IMI ([1]; peptide + imipenem, for the Indopt versions 1/8 MHb, 2–5 × 10^5 CFU/ml, 37°C, 18 h, visual, determined once (n = 1)): 0.63; FIC, combination with KAN ([1]; peptide + kanamycin, for the Indopt versions 1/8 MHb, 2–5 × 10^5 CFU/ml, 37°C, 18 h, visual, determined once (n = 1)): 0.75; FIC, combination with MER ([1]; peptide + meropenem, for the Indopt versions 1/8 MHb, 2–5 × 10^5 CFU/ml, 37°C, 18 h, visual, determined once (n = 1)): 0.63; FIC, combination with PIP ([1]; peptide + piperacillin, for the Indopt versions 1/8 MHb, 2–5 × 10^5 CFU/ml, 37°C, 18 h, visual, determined once (n = 1)): 0.56; FIC, combination with PMB ([1]; peptide + polymyxin B, for the Indopt versions 1/8 MHb, 2–5 × 10^5 CFU/ml, 37°C, 18 h, visual, determined once (n = 1)): 0.25; FIC, combination with TET ([1]; peptide + tetracycline, for the Indopt versions 1/8 MHb, 2–5 × 10^5 CFU/ml, 37°C, 18 h, visual, determined once (n = 1)): 1; FIC, combination with TOB ([1]; peptide + tobramycin, for the Indopt versions 1/8 MHb, 2–5 × 10^5 CFU/ml, 37°C, 18 h, visual, determined once (n = 1)): 0.5 |
| CC[C@H](C)[C@H](NC(=O)[C@@H](N)Cc1ccccc1)C(=O)N[C@@H](CCCCN)C(=O)N[C@@H](Cc1c[nH]c2ccccc12)C(=O)N[C@@H](CCCCN)C(=O)N[C@@H](CCCCN)C(=O)N[C@@H](CCCNC(=N)N)C(=O)N[C@@H](Cc1c[nH]c2ccccc12)C(=O)N[C@@H](Cc1c[nH]c2ccccc12)C(=O)N[C@@H](CCCCN)C(=O)N[C@@H](CCCCN)C(=O)N[C@@H](CCCNC(=N)N)C(=O)N[C@H](C(N)=O)[C@@H](C)O [Indopt 1] (H-FIKWKKRWWKKRT-NH2) | 8 (≈ 15.1 µg/mL) | 32 | 16 | 4 (≈ 7.56 µg/mL) | – |
| CC[C@H](C)[C@H](NC(=O)[C@@H](N)Cc1ccccc1)C(=O)N[C@@H](CCCCN)C(=O)N[C@@H](Cc1c[nH]c2ccccc12)C(=O)N[C@@H](CCCNC(=N)N)C(=O)N[C@@H](Cc1ccccc1)C(=O)N[C@@H](CCCNC(=N)N)C(=O)N[C@@H](CCCNC(=N)N)C(=O)N[C@@H](Cc1c[nH]c2ccccc12)C(=O)N[C@@H](CCCCN)C(=O)N[C@@H](CCCCN)C(=O)N[C@@H](CCCNC(=N)N)C(=O)N[C@H](C(N)=O)[C@@H](C)O [Indopt 2] (H-FIKWRFRRWKKRT-NH2) | 8 (≈ 15.3 µg/mL) | 32 | 16 | 4 (≈ 7.63 µg/mL) | – |
| CC[C@H](C)[C@H](NC(=O)[C@@H](N)Cc1ccccc1)C(=O)N[C@@H](CCCCN)C(=O)N[C@@H](Cc1c[nH]c2ccccc12)C(=O)N[C@@H](CCCNC(=N)N)C(=O)N[C@@H](CO)C(=O)N[C@@H](CCCNC(=N)N)C(=O)N[C@@H](Cc1c[nH]c2ccccc12)C(=O)N[C@@H](Cc1c[nH]c2ccccc12)C(=O)N[C@@H](CCCCN)C(=O)N[C@@H](CCCCN)C(=O)N[C@@H](CCCNC(=N)N)C(=O)N[C@H](C(N)=O)[C@@H](C)O [Indopt 3] (H-FIKWRSRWWKKRT-NH2) | 8 (≈ 15 µg/mL) | 32 | 16 | 4 (≈ 7.51 µg/mL) | – |
| CC[C@H](C)[C@H](NC(=O)[C@@H](N)Cc1ccccc1)C(=O)N[C@@H](CCCCN)C(=O)N[C@@H](Cc1c[nH]c2ccccc12)C(=O)N[C@@H](CCCNC(=N)N)C(=O)N[C@@H](Cc1ccccc1)C(=O)N[C@@H](CCCNC(=N)N)C(=O)N[C@@H](CCCNC(=N)N)C(=O)N[C@@H](Cc1c[nH]c2ccccc12)C(=O)N[C@@H](CCCCN)C(=O)N[C@@H](CCCCN)C(=O)N[C@@H](CCCNC(=N)N)C(=O)N[C@@H](CCCCN)C(N)=O [Indopt 4] (H-FIKWRFRRWKKRK-NH2) | 4 to 8 | 16 to 32 | 8 | 4 (≈ 7.74 µg/mL) | MIC against MDR isolates of PA, PA910 (MDR P. aeruginosa PA 910): 4 to 8 µM |
| CC[C@H](C)[C@H](NC(=O)[C@@H](N)Cc1ccccc1)C(=O)N[C@@H](CCCCN)C(=O)N[C@@H](Cc1c[nH]c2ccccc12)C(=O)N[C@@H](CCCCN)C(=O)N[C@@H](Cc1ccccc1)C(=O)N[C@@H](CCCNC(=N)N)C(=O)N1CCC[C@H]1C(=O)N[C@@H](Cc1c[nH]c2ccccc12)C(=O)N[C@@H](CCCCN)C(=O)N[C@@H](CCCCN)C(=O)N[C@@H](CCCNC(=N)N)C(=O)N[C@H](C(N)=O)[C@@H](C)O [Indopt 5] (H-FIKWKFRPWKKRT-NH2) | 8 (≈ 14.6 µg/mL) | 16 to 32 | 16 | 4 (≈ 7.28 µg/mL) | – |

Reference: article PMC6901909, “Synergy Pattern of Short Cationic Antimicrobial Peptides Against Multidrug-Resistant Pseudomonas aeruginosa” (Frontiers in Microbiology, 2019)
